Peptide text beside a SMILES is read from it.
Tested on: rat erythrocytes
Assay: Cytotoxicity to rat erythrocytes (hemolysis, absorbance 550 nm)
Assay type: cell-based
Details: for % 렛 적혈구 파괴능: 37 ℃, 30 min, 0.1 % Triton X-100 = 100 %

Structure (SMILES)	% 렛 적혈구 파괴능 (12.5 ㎍/ml peptide)	% 렛 적혈구 파괴능 (25 ㎍/ml peptide)	% 렛 적혈구 파괴능 (50 ㎍/ml peptide)	% 렛 적혈구 파괴능 (100 ㎍/ml peptide)	% 렛 적혈구 파괴능 (200 ㎍/ml peptide)	cytotoxicity to erythrocytes, result in words (even at low concentrations)	erythrocyte lysis, result in words (concentrations up to 200 ㎍/ml)
CC[C@H](C)[C@H](NC(=O)CN)C(=O)NCC(=O)N[C@@H](C)C(=O)N[C@H](C(=O)N[C@@H](CC(C)C)C(=O)N[C@@H](CCCCN)C(=O)N[C@H](C(=O)N[C@@H](CC(C)C)C(=O)N[C@H](C(=O)N[C@H](C(=O)NCC(=O)N[C@@H](CC(C)C)C(=O)N1CCC[C@H]1C(=O)N[C@@H](C)C(=O)N[C@@H](CC(C)C)C(=O)N[C@H](C(=O)N[C@@H](CO)C(=O)N[C@@H](Cc1c[nH]c2ccccc12)C(=O)N[C@H](C(=O)N[C@@H](CCCCN)C(=O)N[C@@H](CCCNC(=N)N)C(=O)N[C@@H](CCCCN)C(=O)N[C@@H](CCCNC(=N)N)C(=O)N[C@@H](CCC(N)=O)C(=O)N[C@@H](CCC(N)=O)C(N)=O)[C@@H](C)CC)[C@@H](C)CC)[C@@H](C)O)[C@@H](C)O)C(C)C)C(C)C [멜리틴]	75.8%	83.1%	89.8%	88.3%	91.4%	높은 세포 독성	
CC[C@H](C)[C@H](NC(=O)[C@H](Cc1ccccc1)NC(=O)[C@H](Cc1ccccc1)NC(=O)[C@H](CC(C)C)NC(=O)[C@H](CCCCN)NC(=O)[C@H](CC(N)=O)NC(=O)[C@H](CCCCN)NC(=O)[C@H](Cc1c[nH]c2ccccc12)NC(=O)[C@H](Cc1ccccc1)NC(=O)[C@@H](N)CCSC)C(=O)N[C@H](C(=O)N[C@@H](CCCCN)C(=O)N[C@@H](CCCCN)C(N)=O)C(C)C [Teleogryllusine 3, MFWKNKLFFIVKK-NH2] (H-MFWKNKLFFIVKK-NH2)	0%	0.09%	0.28%	0%	1.22%		파괴능이 미미함

From patent publication KR20200071421A, “왕귀뚜라미에서 유래한 항균 펩타이드 테레오그릴루신 3 및 그의 조성물” (대한민국(농촌진흥청장), priority 2018, dated 2020)
